Assay results from patent US20210193322A1, “NETWORK METHODS FOR NEURODEGENERATIVE DISEASES” (Genting TauRx Diagnostic Centre SDN BHD, priority 2018, published 2021).

What was measured:
AD diagnosed patients = assay: Structural correlation network analysis (MRI cortical thickness and surface area correlation matrices, node degree) in AD patients; format: in vivo, human
bvFTD = settings: cited from earlier work

Row | SMILES | number of inverse/compensatory non-homologous cortical thickness correlations compared with healthy elderly controls (AD diagnosed patients; 54 AD patients with CDR 0.5 only, baseline and week 65, LMTM 8 mg/day monotherapy, vs 202 healthy elderly, FIGS. 27A-27D) | number of inverse/compensatory non-homologous surface area correlations compared with healthy elderly controls (AD diagnosed patients; 54 AD patients with CDR 0.5 only, baseline and week 65, LMTM 8 mg/day monotherapy, vs 202 healthy elderly, FIGS. 28A-28D) | cortical thickness networks compared with healthy elderly controls (AD diagnosed patients; 96 AD patients (CDR 0.5, 1 or 2), baseline and week 65, LMTM 8 mg/day monotherapy, vs 202 healthy elderly, FIGS. 25A-25D) | surface area networks compared with healthy elderly controls (AD diagnosed patients; 96 AD patients (CDR 0.5, 1 or 2), baseline and week 65, LMTM 8 mg/day monotherapy, vs 202 healthy elderly, FIGS. 26A-26D) | compensatory network correlations (especially non-homologous, positive and inverse correlations) (AD diagnosed patients; summary statement) | cortical thickness correlations, within-lobe (positive) and between-lobe compensatory (inverse) (AD diagnosed patients; week 65 vs baseline, LMTM 8 mg/day monotherapy, 96 AD patients, FIGS. 21A-21B) | surface area correlations, within-lobe (positive) and between-lobe compensatory (inverse) (AD diagnosed patients; week 65 vs baseline, LMTM 8 mg/day monotherapy, 96 AD patients, FIGS. 23A-23B) | effect on cortical thickness structural correlation networks (correlation matrix) (AD diagnosed patients; week 65 vs baseline, LMTM 8 mg/day with symptomatic AD treatments (ach1), 445 AD patients, FIGS. 19A-19B) | effect on non-homologous inter-lobar node degree (cortical thickness and surface area, positive and inverse correlations) (AD diagnosed patients; week 65 vs week 0, LMTM 8 mg/day as add-on, ach1 group, FIGS. 20A-20D) | number of positive and inverse non-homologous cortical thickness correlations (inter-lobar node degree) (AD diagnosed patients; week 65 vs week 0, LMTM 8 mg/day monotherapy, ach0 group, FIGS. 22A-22B) | number of positive and inverse/compensatory surface area correlations (non-homologous inter-lobar node degree) (AD diagnosed patients; week 65 vs week 0, LMTM 8 mg/day monotherapy, ach0 group, FIGS. 24A-24B) | treatment benefit in bvFTD (bvFTD)
1 | CN(C)c1ccc2c(c1)Sc1cc(N(C)C)ccc1N2 [LMTM, leuco-methylthioninium bis(hydromethanesulfonate)] | equivalent to the normal elderly controls | either equivalent to or lower than normal elderly controls | brings the cortical thickness networks closer to normal | normalizes surface area networks | reduce compensatory network correlations | major reduction in thickness correlations | significant reductions in surface area correlations | minimal effect | minimal overall effect | significant reduction | significant reduction | –
2 | CC12CC3CC(C)(C1)CC(N)(C3)C2 [memantine] | – | – | – | – | – | – | – | – | – | – | – | no treatment benefit
